# Tested on: PAO1 protein
# Format: cell-based, Pseudomonas aeruginosa
smiles,measurement,value
"N[C@@H](CCC(=O)N[C@@H](CSN=O)C(=O)NCC(=O)O)C(=O)O [GSNO, nitrosoglutathione]",overall SNO level of the PAO1 protein,increased significantly
